Consider 25 compounds from patent US9371295B2, “Compounds for use in the treatment of disorders that are ameliorated by inhibition of HDAC” (IRBM—Science Park S.p.A., priority 2012, dated 2016).

Test [1] relates to human γ-globin promoter (EGFP reporter) in K562 cells. Put plainly: HbF activation assay on K562 (EGFP/RFP reporter model system for screening of inducers of fetal hemoglobin). The test is classed as cell-based. The conditions noted are these: 60 hours. The essentials:
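K562 cells stably carrying EGFP under the human γ-globin promoter and far-red FP under the β-globin promoter, with the LCR, were seeded at 1000 cells/well. Cells were exposed to compounds (0.25% DMSO final) for 60 h at 37 °C. Fluorescence was read by plate cytometry, normalized to Hoechst nuclei count, which also indicated proliferation or death.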

The target in a further test is T1, HDAC1 (Homo sapiens, UniProt Q13547).
T1 construct: made in house
T1 sequence (Q13547 whole entry): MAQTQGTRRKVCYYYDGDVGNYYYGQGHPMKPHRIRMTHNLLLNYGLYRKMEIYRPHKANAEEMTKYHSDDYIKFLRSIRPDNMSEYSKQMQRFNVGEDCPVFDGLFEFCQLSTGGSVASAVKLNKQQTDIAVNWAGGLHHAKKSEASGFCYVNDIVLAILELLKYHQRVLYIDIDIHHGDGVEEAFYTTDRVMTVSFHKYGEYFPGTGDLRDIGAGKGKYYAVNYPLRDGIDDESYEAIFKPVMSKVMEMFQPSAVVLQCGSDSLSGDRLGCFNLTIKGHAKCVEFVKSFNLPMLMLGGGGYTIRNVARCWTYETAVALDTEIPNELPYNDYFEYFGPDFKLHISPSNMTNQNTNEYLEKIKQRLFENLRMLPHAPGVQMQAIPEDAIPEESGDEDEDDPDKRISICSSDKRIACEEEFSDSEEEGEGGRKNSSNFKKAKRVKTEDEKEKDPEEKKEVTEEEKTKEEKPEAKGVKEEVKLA
Put plainly: HDAC1 assay (Fluor-de-Lys fluorescent deacetylase assay). It counts as biochemical. The following applies: read-out: hHDAC IC50. In a few lines: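 Serially diluted compounds were pre-incubated with purified FLAG-tagged HDAC1 (1-2 nM final; from transfected HeLa cells) or HeLa nuclear extract, then given the Fluor-de-Lys acetyl-lysine substrate/developer; deacetylation read as fluorescence. Reactions were stopped with TSA (3 uM final).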

A further test concerns HDAC in Hela cells. The test is described as follows: HDAC Hela Cell Based assay.

SMILES strings stand for the structures.

One may read the EC50 as the concentration at which the effect is half-maximal. A high value points to a need for much substance. As usually defined, the IC50 is the concentration that inhibits the measured activity by half. In test [1], `CCC(=O)CCCCC[C@H](NC(=O)Cn1ccc(C)n1)c1ncc(-c2cc3ccccc3nc2OC)o1` [Compound 78, (S)-N-(1-(5-(2-methoxyquinolin-3-yl)oxazol-2-yl)-7-oxononyl)-2-(3-methyl-1H-pyrazol-1-yl)acetamide] registered an EC50 greater than 1000 nM. Besides, the IC50 on HDAC1 is less than 100 nM; with HDAC in Hela cells it was 100 to 1000 nM.

The compound `CCC(=O)CCCCC[C@H](NC(=O)Cc1ncccn1)c1ncc(-c2cc3ccccc3nc2OC)o1` [Compound 79, (S)-N-(1-(5-(2-methoxyquinolin-3-yl)oxazol-2-yl)-7-oxononyl)-2-(pyrimidin-2-yl)acetamide] gave an EC50 in test [1] greater than 1000 nM. In addition, the figures for the IC50 at HDAC1 and with HDAC in Hela cells were less than 100 nM and 100 to 1000 nM, respectively.

`CCC(=O)CCCCC[C@H](NC(=O)Cn1nc(C)cc1C)c1ncc(-c2cc3ccccc3nc2OC)o1` [Compound 81, (S)-2-(3,5-dimethyl-1H-pyrazol-1-yl)-N-(1-(5-(2-methoxyquinolin-3-yl)oxazol-2-yl)-7-oxononyl)acetamide] gave an EC50 in test [1] greater than 1000 nM. Also, the half-maximal inhibitory concentration (IC50) at HDAC1 was less than 100 nM; in the test with HDAC in Hela cells it was 100 to 1000 nM.

Compound `CCC(=O)CCCCC[C@H](NC(=O)c1sc(C)nc1C)c1ncc(-c2cc3ccccc3nc2OC)o1` [Compound 83, (S)-N-(1-(5-(2-methoxyquinolin-3-yl)oxazol-2-yl)-7-oxononyl)-2,4-dimethylthiazole-5-carboxamide] displayed an EC50 in test [1] greater than 1000 nM. Besides, the IC50 on HDAC1 is less than 100 nM; with HDAC in Hela cells it was 100 to 1000 nM.

On to `CCC(=O)CCCCC[C@H](NC(=O)C1(C)CN(C)C1)c1ncc(-c2cc3ccccc3nc2OC)o1` [Compound 84, (S)-N-(1-(5-(2-methoxyquinolin-3-yl)oxazol-2-yl)-7-oxononyl)-1,3-dimethylazetidine-3-carboxamide], for which the EC50 in test [1] was 100 to 1000 nM. Also, the concentration for half-maximal inhibition (IC50) at HDAC1 is less than 100 nM; with HDAC in Hela cells, 100 to 1000 nM.

`CCC(=O)CCCCC[C@H](NC(=O)C1CCN1C)c1ncc(-c2cc3ccccc3nc2OC)o1` (stereo partly drawn) [Compound 85, N-((S)-1-(5-(2-methoxyquinolin-3-yl)oxazol-2-yl)-7-oxononyl)-1-methylazetidine-2-carboxamide]: the EC50 in test [1] is greater than 1000 nM. For the same compound, the IC50 at HDAC1 is less than 100 nM; with HDAC in Hela cells, 100 to 1000 nM.

For the compound `CCC(=O)CCCCC[C@H](NC(=O)Cn1cncn1)c1ncc(-c2cc3ccccc3nc2OC)o1` [Compound 86, (S)-N-(1-(5-(2-methoxyquinolin-3-yl)oxazol-2-yl)-7-oxononyl)-2-(1H-1,2,4-triazol-1-yl)acetamide], the half-maximal effective concentration (EC50) in test [1] is greater than 1000 nM. Besides, the results for the half-inhibitory concentration (IC50) on HDAC1 and with HDAC in Hela cells were less than 100 nM and 100 to 1000 nM, respectively.

Regarding `CCC(=O)CCCCC[C@H](NC(=O)c1ccnn1C)c1ncc(-c2cc3ccccc3nc2OC)o1` [Compound 87, (S)-N-(1-(5-(2-methoxyquinolin-3-yl)oxazol-2-yl)-7-oxononyl)-1-methyl-1H-pyrazole-5-carboxamide], the EC50 in test [1] was 100 to 1000 nM. Further, the results for the IC50 at HDAC1 and in the test on HDAC in Hela cells were less than 100 nM and 100 to 1000 nM, respectively.

In test [1], `CCC(=O)CCCCC[C@H](NC(=O)Cn1cc2ccccc2n1)c1ncc(-c2cc3ccccc3nc2OC)o1` [Compound 88, (S)-2-(2H-indazol-2-yl)-N-(1-(5-(2-methoxyquinolin-3-yl)oxazol-2-yl)-7-oxononyl)acetamide] returned an EC50 greater than 1000 nM. The IC50 is less than 100 nM on HDAC1 and 100 to 1000 nM in the test with HDAC in Hela cells.

`CCC(=O)CCCCC[C@H](NC(=O)Cc1cc2ncccn2n1)c1ncc(-c2cc3ccccc3nc2OC)o1` [Compound 89, (S)-N-(1-(5-(2-methoxyquinolin-3-yl)oxazol-2-yl)-7-oxononyl)-2-(pyrazolo[1,5-a]pyrimidin-2-yl)acetamide] came in with an EC50 in test [1] greater than 1000 nM. Also, the figures for the IC50 at HDAC1 and in the test on HDAC in Hela cells were less than 100 nM and 100 to 1000 nM, respectively.

`CCC(=O)CCCCC[C@H](NC(=O)c1nnc(C)o1)c1ncc(-c2cc3ccccc3nc2OC)o1` [Compound 90, (S)-N-(1-(5-(2-methoxyquinolin-3-yl)oxazol-2-yl)-7-oxononyl)-5-methyl-1,3,4-oxadiazole-2-carboxamide] came in with an EC50 in test [1] greater than 1000 nM. Further, the results for the half-maximal inhibitory concentration (IC50) at HDAC1 and with HDAC in Hela cells were less than 100 nM and 100 to 1000 nM, respectively.

For `CCC(=O)CCCCC[C@H](NC(=O)c1cccnc1)c1ncc(-c2cc3ccccc3nc2OC)o1` [Compound 91, (S)-N-(1-(5-(2-methoxyquinolin-3-yl)oxazol-2-yl)-7-oxononyl)nicotinamide], the EC50 in test [1] was 100 to 1000 nM. Moreover, the IC50 on HDAC1 is less than 100 nM; with HDAC in Hela cells, 100 to 1000 nM.

As for `CCC(=O)CCCCC[C@H](NC(=O)CCc1cnn(C)c1)c1ncc(-c2cc3ccccc3nc2OC)o1` [Compound 93, (S)-N-(1-(5-(2-methoxyquinolin-3-yl)oxazol-2-yl)-7-oxononyl)-3-(1-methyl-1H-pyrazol-4-yl)propanamide], in test [1], the EC50 lay in the range of 100 to 1000 nM. Also, the IC50 was less than 100 nM on HDAC1 and 100 to 1000 nM with HDAC in Hela cells.

Turning to `CCC(=O)CCCCC[C@H](NC(=O)c1cc(CN2CCCCC2)ns1)c1ncc(-c2cc3ccccc3nc2OC)o1` [Compound 94, (S)-N-(1-(5-(2-methoxyquinolin-3-yl)oxazol-2-yl)-7-oxononyl)-3-(piperidin-1-ylmethyl)isothiazole-5-carboxamide], the EC50 in test [1] was greater than 1000 nM. Further, the IC50 on HDAC1 was less than 100 nM; in the test on HDAC in Hela cells, 100 to 1000 nM.

`CCC(=O)CCCCC[C@H](NC(=O)C(C)n1nc(C)cc1C)c1ncc(-c2cc3ccccc3nc2OC)o1` (stereo partly drawn) [Compound 95, 2-(3,5-dimethyl-1H-pyrazol-1-yl)-N-((S)-1-(5-(2-methoxyquinolin-3-yl)oxazol-2-yl)-7-oxononyl)propanamide] returned an EC50 in test [1] greater than 1000 nM. Moreover, the results for the concentration for half-maximal inhibition (IC50) at HDAC1 and in the test with HDAC in Hela cells were less than 100 nM and 100 to 1000 nM, respectively.

Turning to `CCC(=O)CCCCC[C@H](NC(=O)c1cc(C)nn1C)c1ncc(-c2cc3ccccc3nc2OC)o1` [Compound 96, (S)-N-(1-(5-(2-methoxyquinolin-3-yl)oxazol-2-yl)-7-oxononyl)-1,3-dimethyl-1H-pyrazole-5-carboxamide], the EC50 in test [1] is greater than 1000 nM. Also, the IC50 on HDAC1 is less than 100 nM; in the test with HDAC in Hela cells it was 100 to 1000 nM.

As to `CCC(=O)CCCCC[C@H](NC(=O)Cn1cnc2ccccc21)c1ncc(-c2cc3ccccc3nc2OC)o1` [Compound 97, (S)-2-(1H-benzo[d]imidazol-1-yl)-N-(1-(5-(2-methoxyquinolin-3-yl)oxazol-2-yl)-7-oxononyl)acetamide], in test [1], the EC50 is greater than 1000 nM. In addition, the IC50 at HDAC1 is less than 100 nM; with HDAC in Hela cells it was 100 to 1000 nM.

The compound `CCC(=O)CCCCC[C@H](NC(=O)c1ccn(C)n1)c1ncc(-c2cc3ccccc3nc2OC)o1` [Compound 98, (S)-N-(1-(5-(2-methoxyquinolin-3-yl)oxazol-2-yl)-7-oxononyl)-1-methyl-1H-pyrazole-3-carboxamide] registered an EC50 in test [1] greater than 1000 nM. Besides, the figures for the IC50 on HDAC1 and in the test on HDAC in Hela cells were less than 100 nM and 100 to 1000 nM, respectively.

As to `CCC(=O)CCCCC[C@H](NC(=O)c1csnn1)c1ncc(-c2cc3ccccc3nc2OC)o1` [Compound 99, (S)-N-(1-(5-(2-methoxyquinolin-3-yl)oxazol-2-yl)-7-oxononyl)-1,2,3-thiadiazole-4-carboxamide], the EC50 in test [1] was greater than 1000 nM. Also, the IC50 at HDAC1 is less than 100 nM; in the test with HDAC in Hela cells, 100 to 1000 nM.

For `CCC(=O)CCCCC[C@H](NC(=O)c1ccns1)c1ncc(-c2cc3ccccc3nc2OC)o1` [Compound 100, (S)-N-(1-(5-(2-methoxyquinolin-3-yl)oxazol-2-yl)-7-oxononyl)isothiazole-5-carboxamide], the EC50 in test [1] lay in the range of 100 to 1000 nM. In addition, the IC50 at HDAC1 was less than 100 nM; with HDAC in Hela cells it was 100 to 1000 nM.

With `CCC(=O)CCCCC[C@H](NC(=O)c1snnc1C)c1ncc(-c2cc3ccccc3nc2OC)o1` [Compound 101, (S)-N-(1-(5-(2-methoxyquinolin-3-yl)oxazol-2-yl)-7-oxononyl)-4-methyl-1,2,3-thiadiazole-5-carboxamide], in test [1], the EC50 is greater than 1000 nM. Besides, the figures for the half-inhibitory concentration (IC50) at HDAC1 and in the test with HDAC in Hela cells were less than 100 nM and 100 to 1000 nM, respectively.

`CCC(=O)CCCCC[C@H](NC(=O)C(C)n1cccn1)c1ncc(-c2cc3ccccc3nc2OC)o1` (stereo partly drawn) [Compound 102, N-((S)-1-(5-(2-methoxyquinolin-3-yl)oxazol-2-yl)-7-oxononyl)-2-(1H-pyrazol-1-yl)propanamide] had a concentration for a half-maximal effect (EC50) in test [1] greater than 1000 nM. In addition, the IC50 at HDAC1 was less than 100 nM; with HDAC in Hela cells it was 100 to 1000 nM.

For `CCC(=O)CCCCC[C@H](NC(=O)c1csc(CN(C)C)n1)c1ncc(-c2cc3ccccc3nc2OC)o1` [Compound 103, (S)-2-((dimethylamino)methyl)-N-(1-(5-(2-methoxyquinolin-3-yl)oxazol-2-yl)-7-oxononyl)thiazole-4-carboxamide], in test [1], the EC50 was greater than 1000 nM. The IC50 at HDAC1 and in the test with HDAC in Hela cells was 100 to 1000 nM in each case.

As for `CCC(=O)CCCCC[C@H](NC(=O)C1CCCN(C)C1)c1ncc(-c2cc3ccccc3nc2OC)o1` (stereo partly drawn) [Compound 104, N-((S)-1-(5-(2-methoxyquinolin-3-yl)oxazol-2-yl)-7-oxononyl)-1-methylpiperidine-3-carboxamide], the EC50 in test [1] fell in the range of 100 to 1000 nM. Besides, the half-maximal inhibitory concentration (IC50) at HDAC1 and in the test with HDAC in Hela cells was less than 100 nM in each case.

`CCC(=O)CCCCC[C@H](NC(=O)C1(N(C)C)CCCC1)c1ncc(-c2cc3ccccc3nc2OC)o1` [Compound 105, (S)-1-(dimethylamino)-N-(1-(5-(2-methoxyquinolin-3-yl)oxazol-2-yl)-7-oxononyl)cyclopentanecarboxamide]: the EC50 in test [1] lay within 100 to 1000 nM. The IC50 on HDAC1 and with HDAC in Hela cells was less than 100 nM each time.
